Results reported in patent US8435978B2, “Substituted sulfonamide compounds” (Gruenenthal GmbH, priority 2006, dated 2013).

What was measured:
B1R receptor of the rat = target: T1, B1R receptor of the rat (Rattus norvegicus, UniProt P97583); assay: Functional study on the bradykinin receptor 1 (B1R), FLIPR Ca2+ assay, rB1R cells; format: cell-based; conditions: agonist Des-Arg9-bradykinin 100 nM, % inhibition compared with the maximum achievable inhibition; for inhibition at 10 µM: CHO-K1, test substance 10 μM, read-out: B1R Antagonism, rat [10 μM] % Inhibition
T1 construct: host or cells: CHO K1 cells (Chinese hamster ovary), stably transfected
T1 sequence (P97583 1-337): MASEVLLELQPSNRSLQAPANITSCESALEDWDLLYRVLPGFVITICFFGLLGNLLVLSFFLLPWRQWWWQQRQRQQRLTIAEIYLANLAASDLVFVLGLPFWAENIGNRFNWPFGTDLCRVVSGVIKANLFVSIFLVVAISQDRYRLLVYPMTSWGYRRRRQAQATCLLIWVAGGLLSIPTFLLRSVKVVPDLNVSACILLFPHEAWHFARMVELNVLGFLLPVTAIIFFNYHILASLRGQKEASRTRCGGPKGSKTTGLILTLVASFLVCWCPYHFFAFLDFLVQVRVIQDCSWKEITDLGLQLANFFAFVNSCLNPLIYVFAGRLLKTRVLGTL
Method: (§1) The agonistic or antagonistic action of substances can be quantified on the bradykinin receptor 1 (B1R) of the species human and rat with ectopically expressing cell lines (CHO K1 cells) and with the aid of a Ca^2+-sensitive dye (Fluo-4) using a fluorescent imaging plate reader (FLIPR). The indication in % activation is based on the Ca^2+ signal after addition of Lys-Des-Arg^9-bradykinin (0.5 nM) or Des-Arg^9-bradykinin (100 nM). Antagonists result in a suppression of the Ca^2+ influx following administration of the agonist. The % inhibition in comparison with the maximum achievable inhibition is indicated.
(§2) The agonistic or antagonistic action of substances can be determined on the bradykinin receptor 1 (B1R) of the species human and rat using the following assay. According to this assay, the Ca^2+ influx through the channel is quantified with the aid of a Ca^2+-sensitive dye (type Fluo-4, Molecular Probes Europe BV, Leiden, Netherlands) using a Fluorescent Imaging Plate Reader (FLIPR, Molecular Devices, Sunnyvale, USA).
(§3) Chinese hamster ovary cells (CHO K1 cells) which have been stably transfected with the human B1R gene (hB1R cells, Euroscreen s.a., Gosselies, Belgium) or with the B1R gene of the rat (rB1R cells, Axxam, Milan, Italy) are used. For functional studies, the cells are plated out on black 96-well plates having a clear base (BD Biosciences, Heidelberg, Germany) in a density of 20,000-25,000 cells/well. The cells are incubated overnight at 37° C. and with 5% CO2 in culture medium (hB1R cells: Nutrient Mixture Ham's F12, Gibco Invitrogen GmbH, Karlsruhe, Germany; rB1R cells: D-MEM/F12, Gibco Invitrogen GmbH, Karlsruhe, Germany), with 10 vol. % FBS (fetal bovine serum, Gibco Invitrogen GmbH, Karlsruhe, Germany). On the following day, the cells are loaded for 60 minutes at 37° C. with 2.13 μM Fluo-4 (Molecular Probes Europe BV, Leiden, Netherlands) in HBSS buffer (Hank's buffered saline solution, Gibco Invitrogen GmbH, Karlsruhe, Germany) […] (Sigma-Aldrich, Taufkirchen, Germany) and 10 mM HEPES (Sigma-Aldrich, Taufkirchen, Germany). The plates are then washed twice with HBSS buffer, and HBSS buffer additionally containing 0.1% BSA (bovine serum albumin; Sigma-Aldrich, Taufkirchen, Germany), 5.6 mM glucose and 0.05% gelatin (Merck KGaA, Darmstadt, Germany) is added to the plates. After incubation for a further 20 minutes at room temperature, the plates are inserted into the FLIPR for Ca^2+ measurement. The Ca^2+-dependent fluorescence is measured before and after the addition of substances (λex=488 nm, λem=540 nm). Quantification is carried out by measuring the highest fluorescence intensity (FC, fluorescence counts) over time.
(§4) The FLIPR protocol consists of 2 substance additions. Test substances (10 μM) are first pipetted onto the cells and the Ca^2+ influx is compared with the control (hB1R: Lys-Des-Arg^9-bradykinin 0.5 nM; rB1R: Des-Arg^9-bradykinin 100 nM). This gives the activation in %, based on the Ca^2+ signal after addition of Lys-Des-Arg^9-bradykinin (0.5 nM) or Des-Arg^9-bradykinin (100 nM).
(§5) After 10 minutes' incubation, 0.5 nM Lys-Des-Arg^9-bradykinin (hB1R) or 100 nM Des-Arg^9-bradykinin (rB1R) are applied, and the influx of Ca^2+ is likewise determined. Antagonists lead to suppression of the Ca^2+ influx. The % inhibition compared with the maximum achievable inhibition is calculated.

human B1R receptor = target: T2, human B1R receptor (Homo sapiens, UniProt P46663); assay: Functional study on the bradykinin receptor 1 (B1R), FLIPR Ca2+ assay, hB1R cells; format: cell-based; conditions: agonist Lys-Des-Arg9-bradykinin 0.5 nM, % inhibition compared with the maximum achievable inhibition; for inhibition at 10 µM: CHO-K1, test substance 10 μM, read-out: B1R Antagonism, human [10 μM] % Inhibition; for B1R Antagonism, human [10 μM] % Inhibition: test substance 10 μM, hB1R CHO K1 cells
T2 construct: host or cells: CHO K1 cells (Chinese hamster ovary), stably transfected
T2 sequence (P46663 1-353): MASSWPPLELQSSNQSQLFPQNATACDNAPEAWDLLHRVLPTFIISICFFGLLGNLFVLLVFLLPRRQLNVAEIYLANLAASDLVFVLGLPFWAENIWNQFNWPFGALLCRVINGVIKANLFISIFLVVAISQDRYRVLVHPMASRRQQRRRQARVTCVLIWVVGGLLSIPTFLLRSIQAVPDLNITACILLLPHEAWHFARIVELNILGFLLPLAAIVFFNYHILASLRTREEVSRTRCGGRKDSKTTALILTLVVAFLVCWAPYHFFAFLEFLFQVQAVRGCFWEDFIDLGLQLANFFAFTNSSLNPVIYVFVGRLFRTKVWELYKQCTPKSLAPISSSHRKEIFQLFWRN
Method: as §1, §2, §3, §4, §5

Compound | inhibition at 10 µM (B1R receptor of the rat) [%] | inhibition at 10 µM (human B1R receptor) [%] | B1R Antagonism, rat [10 μM] % Inhibition (B1R receptor of the rat; test substance 10 μM, rB1R CHO K1 cells) [%] | B1R Antagonism, human [10 μM] % Inhibition (human B1R receptor) [%]
Cc1cc(C)c(S(=O)(=O)N2CCCCC2COCC(=O)NCC2CCCN(Cc3ccccc3)C2)c(C)c1 (stereo not drawn) [Example 12, N-(1-benzyl-piperidin-3-ylmethyl)-2-[1-(2,4,6-trimethyl-phenylsulfonyl)-piperidin-2-ylmethoxy]-acetamide] | 74.9 | 99.1 |  | 
CN1CCN(c2ccc(CNC(=O)COCC3CCCCN3S(=O)(=O)c3c(Cl)cc(Cl)cc3Cl)cc2)CC1 (stereo not drawn) [Example 13, N-[4-(4-methyl-piperazin-1-yl)-benzyl]-2-[1-(2,4,6-trichloro-phenylsulfonyl)-piperidin-2-ylmethoxy]-acetamide] | 113 | 97.7 |  | 
COc1cc(C)c(S(=O)(=O)N2CCCCC2COCC(=O)NCc2ccc(N3CCCCC3)cc2)c(C)c1 (stereo not drawn) [Example 14, 2-[1-(4-methoxy-2,6-dimethyl-phenylsulfonyl)-piperidin-2-ylmethoxy]-N-(4-piperidin-1-yl-benzyl)-acetamide] | 104 | 97 |  | 
CN1CCN(Cc2ccc(CNC(=O)COCC3CCCCN3S(=O)(=O)c3c(Cl)cc(Cl)cc3Cl)cc2)CC1 (stereo not drawn) [Example 15, N-[4-(4-methyl-piperazin-1-ylmethyl)-benzyl]-2-[1-(2,4,6-trichloro-phenylsulfonyl)-piperidin-2-ylmethoxy]-acetamide] | 92.5 | 96 |  | 
O=C(COCC1Cc2ccccc2N1S(=O)(=O)c1ccc(Cl)c(Cl)c1)NCC1CCCN(Cc2ccccc2)C1 (stereo not drawn) [Example 16, N-(1-benzyl-piperidin-3-ylmethyl)-2-[1-(3,4-dichloro-phenylsulfonyl)-2,3-dihydro-1H-indol-2-ylmethoxy]-acetamide] | 25.5 | 95.9 |  | 
O=C(COCC1Cc2ccccc2CN1S(=O)(=O)c1ccc(Cl)cc1Cl)N1CCC(N2CCCC2)CC1 (stereo not drawn) [Example 17] |  |  | 96.94 | 95.53
COc1cc(C)c(S(=O)(=O)N2CCCC2COCC(=O)NCc2ccc(N3CCN(C)CC3)cc2)c(C)c1 (stereo not drawn) [Example 18, 2-[1-(4-methoxy-2,6-dimethyl-phenylsulfonyl)-pyrrolidin-2-ylmethoxy]-N-[4-(4-methyl-piperazin-1-yl)-benzyl]-acetamide] | 110 | 95.3 |  | 
Cc1cc(C)c(S(=O)(=O)N2CCCCC2COCC(=O)N2CCC(N3CCCC3)CC2)c(C)c1 (stereo not drawn) [Example 19, 2-((1-(mesitylsulfonyl)piperidin-2-yl)methoxy)-1-(4-(pyrrolidin-1-yl)piperidin-1-yl)-ethanone] | 98.9 | 95 |  | 
O=C(COCC1CCCCN1S(=O)(=O)c1ccc(Cl)c(Cl)c1)N1CCC(CCN2CCCCC2)CC1 (stereo not drawn) [Example 20, 2-((1-(3,4-dichlorophenylsulfonyl)piperidin-2-yl)methoxy)-1-(4-(2-(piperidin-1-yl)-ethyl)piperidin-1-yl)ethanone] | 86.4 | 94.9 |  | 
COc1cc(C)c(S(=O)(=O)N2CCCCC2COCC(=O)NCc2ccc(N3CCOCC3)cc2)c(C)c1 (stereo not drawn) [Example 21, 2-[1-(4-methoxy-2,6-dimethyl-phenylsulfonyl)-piperidin-2-ylmethoxy]-N-(4-morpholin-4-yl-benzyl)-acetamide] | 108 |  |  | 93.47
CN1CCC(N2CCN(C(=O)COCC3CCCCN3S(=O)(=O)c3cccc(C(F)(F)F)c3)CC2)CC1 (stereo not drawn) [Example 22, 1-[4-(1-methyl-piperidin-4-yl)-piperazin-1-yl]-2-[1-(3-trifluoromethyl-phenylsulfonyl)-piperidin-2-ylmethoxy]-ethanone] | 21.4 | 92.6 |  | 
O=C(COCC1CCCCN1S(=O)(=O)c1cccc2ccccc12)N1CCC(N2CCCC2)CC1 (stereo not drawn) [Example 23, 2-((1-(naphthalen-1-ylsulfonyl)piperidin-2-yl)methoxy)-1-(4-(pyrrolidin-1-yl)piperidin-1-yl)ethanone] | 85.3 | 92.3 |  | 
COc1cc(C)c(S(=O)(=O)N2CCCCC2COCC(=O)NCc2ccc(CN3CCOCC3)cc2)c(C)c1 (stereo not drawn) [Example 24, 2-[1-(4-methoxy-2,6-dimethyl-phenylsulfonyl)-piperidin-2-ylmethoxy]-N-(4-morpholin-4-ylmethyl-benzyl)-acetamide] | 107 | 92.2 |  | 
Cc1cc(C)c(S(=O)(=O)N2Cc3ccccc3CC2COCC(=O)N2CCN(CCCN(C)C)CC2)c(C)c1 (stereo not drawn) [Example 25, 1-[4-(3-dimethylamino-propyl)-piperazin-1-yl]-2-[2-(2,4,6-trimethyl-phenylsulfonyl)-1,2,3,4-tetrahydro-isoquinolin-3-ylmethoxy]-ethanone] | 80.6 | 91 |  | 
O=C(COCC1CCCCN1S(=O)(=O)c1ccc(Cl)c(Cl)c1)N1CCC(N2CCCC2)CC1 (stereo not drawn) [Example 26, 2-[1-(3,4-dichloro-phenylsulfonyl)-piperidin-2-ylmethoxy]-1-(4-pyrrolidin-1-yl-piperidin-1-yl)-ethanone] | 4.56 | 86.8 |  | 
Cc1cc(C)c(S(=O)(=O)N2CCCCC2COCC(=O)N2CCCC2CN2CCCCC2)c(C)c1 (stereo not drawn) [Example 27, 1-(2-piperidin-1-ylmethyl-pyrrolidin-1-yl)-2-[1-(2,4,6-trimethyl-phenylsulfonyl)-piperidin-2-ylmethoxy]-ethanone] | 97.7 | 85.4 |  | 
CN1CCN(C2CCN(C(=O)COCC3CCCCN3S(=O)(=O)c3ccc(Cl)c(Cl)c3)CC2)CC1 (stereo not drawn) [Example 28, 2-[1-(3,4-dichloro-phenylsulfonyl)-piperidin-2-ylmethoxy]-1-[4-(4-methyl-piperazin-1-yl)-piperidin-1-yl]-ethanone] | 0 | 84.7 |  | 
CN1CCN(c2ccc(CNC(=O)COCC3CCCN3S(=O)(=O)c3c(Cl)cc(Cl)cc3Cl)cc2)CC1 (stereo not drawn) [Example 29, N-[4-(4-methyl-piperazin-1-yl)-benzyl]-2-[1-(2,4,6-trichloro-phenylsulfonyl)-pyrrolidin-2-ylmethoxy]-acetamide] | 110 | 84.4 |  | 
